# From US5614533A, “Substituted pipecolinic acid derivatives as HIV protease inhibitors” (Bio-Mega/Boehringer Ingelheim Research, Inc., priority 1994, dated 1997)
# Key:
# HIV protease = target: T1, HIV protease (Human immunodeficiency virus type 1 group M subtype B, UniProt P04585); assay: Recombinant HIV Protease HPLC Assay; assay type: biochemical; settings: 37°, 30 min, pH 5.5
# T1 construct: HIV protease was expressed in E. coli; made in house; host or cells: E. coli (plasmid pBRT1 prt+)
# Summary of the method: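 Recombinant protease from E. coli (pBRT1 prt+ construct), purified and diluted 1/38 for use, cleaves the decapeptide substrate VSFNFPQITL-NH2, containing an HIV polyprotein cleavage site. Inhibition of cleavage is monitored by HPLC.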
# [1] = test system: HIV (H9/HTLV-IIIB) in C8166 cells; assay: plaque assay: inhibition of syncytia formation in HIV-infected C8166 cells; assay type: cell-based; settings: Human immunodeficiency virus 1, IIIB, 72 h, 50% inhibition of syncytia formation
# Summary of the method: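 C8166 cells (5×10^4/well) infected with 50× TCID50 H9/HTLV-IIIB in HEPES-buffered RPMI 1640 (pH 7.2), 10% FCS, with test compound in triplicate; 72 h at 37°, 5% CO2. Syncytia centers counted by phase-contrast microscopy; EC50 from percent inhibition versus serial dilutions by non-linear regression.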
IC50 (HIV protease; Table V),EC50 ([1]; Table V),IC50 (HIV protease; Table IV),EC50 ([1]; Table IV),SMILES,other results
2.8 nM,16 nM,–,–,"Cc1ccnc(S[C@@H]2CCN(C[C@@H](O)[C@H](Cc3ccccc3)NC(=O)[C@@H](NC(=O)c3ccc4ccccc4n3)C(C)C)[C@H](C(=O)NC(C)(C)C)C2)n1 [Table V, entry 23, N-tert-butyl-1-{2(R)-hydroxy-4-phenyl-3(S)-{{N-(2-quinolylinylcarbonyl)valyl}amino}butyl}-4(R)-{(4-methyl-2-pyrimidinyl)thio}piperidine-2(S)-carboxamide]",–
–,–,5.4 nM,15 nM,"CC(C)(C)NC(=O)[C@@H]1C[C@H](Oc2ccccc2)CCN1C[C@@H](O)[C@H](Cc1ccccc1)NC(=O)[C@H](CC(N)=O)NC(=O)c1ccc2ccccc2n1 [Table IV, entry 21, N-tert-butyl-1-{2(R)-hydroxy-4-phenyl-3(S)-{{N-(2-quinolinylcarbonyl)asparaginyl}amino}butyl}-4(R)-phenoxypiperidine-2(S)-carboxamide]",–
–,–,3.7 nM,15 nM,"CC(C)[C@H](NC(=O)OCc1ccccc1)C(=O)N[C@@H](Cc1ccccc1)[C@H](O)CN1CC[C@@H](Sc2ncccn2)C[C@H]1C(=O)NC(C)(C)C [Table IV, entry 35, N-tert-butyl-1-{3(S)-{{N-(benzyloxycarbonyl)valyl}amino}-2(R)-hydroxy-4-phenylbutyl}-4(R)-(2-pyrimidinylthio)piperidine-2(S)-carboxamide]",–
–,–,–,–,"Cc1cc(C)c(OCC(=O)N[C@@H](Cc2ccccc2)[C@H](O)CN2CC[C@@H](Sc3ccncc3)C[C@H]2C(=O)NC(C)(C)C)c(C)c1 [Table VII, entry 2, N-tert-butyl-1-{3(S)-{{(2,4,6-trimethylphenoxy)acetyl}amino}-2(R)-hydroxy-4-phenylbutyl}-4(R)-(4-pyridinylthio)piperidine-2(S)-carboxamide]",IC50 (HIV protease; Table VII): 3.7 nM; EC50 ([1]; Table VII): 47 nM
3.9 nM,24 nM,–,–,"CC(C)[C@H](NC(=O)c1ccc2ccccc2n1)C(=O)N[C@@H](Cc1ccccc1)[C@H](O)CN1CC[C@@H](OCc2ccccn2)C[C@H]1C(=O)NC(C)(C)C [Table V, entry 3, N-tert-butyl-1-{2(R)-hydroxy-4-phenyl-3(S)-{{N-(2-quinolylinylcarbonyl)valyl}amino}butyl}-4(R)-(2-pyridinylmethoxy)piperidine-2-carboxamide]",–
–,–,3.7 nM,700 nM,"CC[C@H](C)[C@H](NC(=O)OCc1ccccc1)C(=O)N[C@@H](Cc1ccccc1)[C@H](O)CN1CC[C@@H](c2ccccc2)C[C@H]1C(=O)NC(C)(C)C [Table IV, entry 11, N-tert-butyl-1-{3(S)-{{N-(benzyloxycarbonyl)isoleucyl}amino}-2(R)-hydroxy-4-phenylbutyl}-4(R)-phenylpiperidine-2(S)-carboxamide]",–
–,–,1.8 nM,56 nM,"CC(C)[C@H](NC(=O)OCc1ccccc1)C(=O)N[C@@H](Cc1ccccc1)[C@H](O)CN1CC[C@@H](Oc2ccccn2)C[C@H]1C(=O)NC(C)(C)C [Table IV, entry 18]",–
–,–,–,–,"CC(C)(C)NC(=O)[C@@H]1C[C@H](SCc2cccnc2)CCN1C[C@@H](O)[C@H](Cc1ccccc1)NC(=O)[C@@H](NC(=O)c1ccc2ccccc2n1)C(C)(C)C [Table VI, entry 5, N-tert-butyl-1-{2(R)-hydroxy-4-phenyl-3(S)-{{N-(2-quinolylinylcarbonyl)tert-butylglycyl}amino}butyl}-4(R)-{(3-pyridinylmethyl)thio}piperidine-2(S)-carboxamide]",IC50 (HIV protease; Table VI): 2.2 nM; EC50 ([1]; Table VI): 8 nM
4.6 nM,73 nM,–,–,"CC(C)[C@H](NC(=O)c1ccc2ccccc2n1)C(=O)N[C@@H](Cc1ccccc1)[C@H](O)CN1CC[C@@H](S(=O)(=O)Cc2ccncc2)C[C@H]1C(=O)NC(C)(C)C [Table V, entry 19, N-tert-butyl-1-{2(S)(R)-hydroxy-4-phenyl-3(S)-{{N-(2-quinolylinylcarbonyl)valyl}amino}butyl}-4(R)-{(4-pyridinylmethyl)sulfonyl}piperidine-2-carboxamide]",–
